Laboratory results: US20060167057A1, “Compounds for the treatment of CNS and amyloid associated diseases” (priority 2004, published 2006)

biological target: T1, L1 transport system (large neutral amino acid carrier, L1-system carrier) (Rattus norvegicus, UniProt Q63016); assay: Competitive binding assay to the brain L1 transport system (L-[U-14C]phenylalanine on rat primary cerebrovascular endothelial cells); settings: 10^−4 M
T1 construct: functionality of their endogenous transporters such as the L1-system carrier; endogenous in cells; host or cells: rat primary cerebrovascular (brain microcapillary) endothelial cells, RBEC
T1 sequence (Q63016 whole entry): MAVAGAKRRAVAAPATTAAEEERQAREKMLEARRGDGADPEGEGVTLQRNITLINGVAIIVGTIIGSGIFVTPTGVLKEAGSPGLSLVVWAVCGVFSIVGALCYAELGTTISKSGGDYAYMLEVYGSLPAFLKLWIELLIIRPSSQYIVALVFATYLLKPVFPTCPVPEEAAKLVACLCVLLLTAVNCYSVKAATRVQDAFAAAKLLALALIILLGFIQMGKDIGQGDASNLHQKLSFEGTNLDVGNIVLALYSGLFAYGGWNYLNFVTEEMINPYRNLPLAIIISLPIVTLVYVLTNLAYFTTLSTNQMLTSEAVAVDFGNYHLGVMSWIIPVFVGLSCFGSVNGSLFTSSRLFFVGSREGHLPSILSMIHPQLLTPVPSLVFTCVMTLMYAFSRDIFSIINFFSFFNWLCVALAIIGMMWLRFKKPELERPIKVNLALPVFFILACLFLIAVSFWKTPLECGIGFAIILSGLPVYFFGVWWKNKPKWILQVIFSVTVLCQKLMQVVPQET
T1 sequence (Q794F9 whole entry partner): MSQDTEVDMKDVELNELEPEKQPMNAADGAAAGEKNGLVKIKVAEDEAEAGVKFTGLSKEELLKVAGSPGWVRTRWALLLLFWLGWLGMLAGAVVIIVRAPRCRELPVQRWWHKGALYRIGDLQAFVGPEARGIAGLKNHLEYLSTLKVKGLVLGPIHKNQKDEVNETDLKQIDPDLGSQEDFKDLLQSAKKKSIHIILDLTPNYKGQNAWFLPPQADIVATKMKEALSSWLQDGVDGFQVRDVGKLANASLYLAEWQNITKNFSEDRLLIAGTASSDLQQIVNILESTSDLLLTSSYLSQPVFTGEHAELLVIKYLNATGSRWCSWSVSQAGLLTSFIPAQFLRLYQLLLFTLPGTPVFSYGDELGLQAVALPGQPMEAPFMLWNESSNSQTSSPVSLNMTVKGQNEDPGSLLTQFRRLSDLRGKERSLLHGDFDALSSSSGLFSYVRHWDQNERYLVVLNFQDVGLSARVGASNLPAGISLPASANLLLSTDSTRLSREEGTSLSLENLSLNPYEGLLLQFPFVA
Protocol: Compound samples in PBS (without Ca^+2, Mg^+2)-glucose 30 mM-HEPES 10 mM—DMSO 1% as prepared in Example 1 were thawed and left for at least 30 minutes at 20-23° C. before preparation of the following sub-dilutions for the competitive binding assay: • 200 μL of the stock solution were added to 800 μL PBS (without Ca^+2, Mg^+2)-Glucose-HEPES-1% DMSO (PBSD-1) [diluted 1:5 for a final 1:5 dilution] • 100 μL (1/5 dilution above) were added to 900 μL PBSD-1 [diluted 1:10 for a final 1:50 dilution] • 100 μL (1/50 dilution above) were added to 900 μL PBSD-1 [diluted 1:10 for a final 1:500 dilution]
These sub-dilutions were used immediately or stored overnight at 4° C. before the competitive binding assay. A volume of 45 μL of each of the compound dilutions (1:5, 1:50, 1:500) in PBSD-1 was added to the appropriate wells in the dilution plate.
Brains from sixty 24-day-old rats were dissected individually on a sterile lint moistened with ice cold Hanks' balanced salt solution (Gibco BRL, Grand Island, N.Y.) containing 10 mM HEPES (medium 1) supplemented with 0.1% BSA. Cerebellum, striatum, optic nerves, and brain stem (white matter) were removed. After a mid-sagittal section of the brain, the meninges and leptomeningeal debris were removed by rolling a sterile dry cotton swab on the cortices. (Ichikawa N, Naora K, Hirano H, Hashimoto M, Masumura S, and Iwamoto K (1996). Isolation and primary culture of rat cerebral microvascular endothelial cells for studying drug transport in vitro. J Pharmacol Toxicol Meth 36: 45-52.). Clean cortices were minced in pieces of ≈2 mm^3 in 15 mL of ice-cold medium 1-0.1% BSA. The preparation was divided into 4 sterile pre-weighed tubes and centrifuged at 330× g at 20-25° C. for 5 min. Tubes were weighed and pre-warmed (37° C.) and medium 1 with 0.5% BSA containing 0.3% collagenase and 10 μg/mL DNAse 1 (Roche, Laval, Quebec, Canada) were added to each tube (1 mL/g of tissue).
The brain-collagenase mixture was vigorously agitated in a water bath at 37° C. for 90 min. Fifteen min before the end of the digestion, the tissue was homogenized using a 10-mL pipette until a creamy mixture was obtained (≈20 aspirations). Cells were washed by adding medium 1 with 0.1% BSA to the homogenate (26 mL/tube) and centrifuged at 100× g at 20-25° C. for 7 min. This washing step was repeated 3 more times, once for 5 min and twice for 3 min. Each pellet was re-suspended in 25 mL of a 15% dextran solution prepared in medium 1 with 0.1% BSA and centrifuged at 3200× g at 4° C. for 25 min to isolate vessels from neural tissue and dextran layers. Vascular pellets were re-suspended in 5 mL Ca^++—Mg^++-free-medium 1 with 0.1% BSA (medium 2) at 20-25° C. and transferred in a 50-mL tube. Remaining vessels were collected by rinsing the tubes and pooling the rinsing suspension. (Rupnick M A, Carey A, and Williams S K (1988). Phenotypic diversity in cultured cerebral microvascular endothelial cells in vitro. Cell Develop Biol 24: 435-444.)
The vascular preparation was filtered and rinsed (20 mL of medium 2) through a sterile 355-μm mesh. The 355-μm filtrate was sequentially filtered twice (20 mL of medium 2) through sterile 112-μm meshes and rinsed (Stanimirovic D B, Wong J, Ball R, and Durkin J P (1995). Free radical-induced endothelial membrane dysfunction at the site of the blood-brain barrier: relationship between lipid peroxidation, Na,K-ATPase activity, and ^51Cr release. Neurochem Res 20:1417-1427.) and the latter filtrate was filtered and rinsed through a sterile 20-μm mesh. A final step of filtration and rinse was repeated through a double layer of 20-μm meshes. All 20-μm meshes, which retained the microcapillaries, were then transferred into a 50-mL tube containing 20 mL of a 0.1% collagenase/dispase (Roche) solution in medium 2 supplemented with 10 μg/mL DNAse 1 and 0.147 μg/mL tosyl-lysine-chloromethyl-ketone (Sigma Chemical Co., Oakville, Ontario, Canada) (medium 3).

Compound | Comparison with the Binding of Phenylalanine
NC(Cc1cccc(CSc2nnc(-c3ccccc3)o2)c1)C(=O)O (stereo not drawn) [Compound 1] | 2 (10 < X < 20 Rank 2)
NC(Cc1cccc(CSc2nnnn2-c2ccc(O)cc2)c1)C(=O)O (stereo not drawn) [Compound 3] | 3 (X > 20 Rank 3)
NC(=O)C(N)Cc1cccc(CSc2nnnn2-c2ccc(O)cc2)c1 (stereo not drawn) [Compound 4] | 2 (10 < X < 20 Rank 2)
NC(Cc1cccc(CSc2ncc[nH]2)c1)C(=O)O (stereo not drawn) [Compound 5] | 3 (X > 20 Rank 3)
NC(=O)C(N)Cc1cccc(CSc2ncc[nH]2)c1 (stereo not drawn) [Compound 6] | 0 (X < 0 Rank 0)
N[C@@H](Cc1ccccc1)C(=O)NC(Cc1cccc(CSc2ncc[nH]2)c1)C(=O)O (stereo partly drawn) [Compound 7] | 0 (X < 0 Rank 0)
NC(Cc1cccc(CSc2nnnn2-c2ccccc2)c1)C(=O)O (stereo not drawn) [Compound 8] | 3 (X > 20 Rank 3)
NC(=O)C(N)Cc1cccc(CSc2nnnn2-c2ccccc2)c1 (stereo not drawn) [Compound 9] | 0 (X < 0 Rank 0)
NC(Cc1cccc(CSc2nnc(-c3ccncc3)o2)c1)C(=O)O (stereo not drawn) [Compound 10] | 0 (X < 0 Rank 0)
NC(=O)C(N)Cc1cccc(CSc2nnc(-c3ccncc3)o2)c1 (stereo not drawn) [Compound 11] | 0 (X < 0 Rank 0)
O=C(O)C(Cc1cccc(CSc2nnc(-c3ccncc3)o2)c1)NS(=O)(=O)c1ccc(F)cc1 (stereo not drawn) [Compound 12] | 0 (X < 0 Rank 0)
NC(Cc1cccc(CSc2nnc(-c3ccccc3)[nH]2)c1)C(=O)O (stereo not drawn) [Compound 13] | 3 (X > 20 Rank 3)
NC(=O)C(N)Cc1cccc(CSc2nnc(-c3ccccc3)[nH]2)c1 (stereo not drawn) [Compound 14] | 0 (X < 0 Rank 0)
NC(Cc1cccc(CSc2nccc(O)n2)c1)C(=O)O (stereo not drawn) [Compound 16] | 0 (X < 0 Rank 0)
O=C(NC(Cc1cccc(CSc2nccc(O)n2)c1)C(=O)O)NC(c1ccccc1)c1ccccc1 (stereo not drawn) [Compound 17] | 1 (0 < X < 10 Rank 1)
NC(Cc1cccc(CSc2nccc(C(F)(F)F)n2)n1)C(=O)O (stereo not drawn) [Compound 21] | 0 (X < 0 Rank 0)
NC(=O)C(N)Cc1cccc(CSc2nccc(C(F)(F)F)n2)n1 (stereo not drawn) [Compound 22] | 0 (X < 0 Rank 0)
NC(Cc1cccc(CSc2cncc3c(C(F)(F)F)cccc23)n1)C(=O)O (stereo not drawn) [Compound 24] | 0 (X < 0 Rank 0)
NC(=O)C(N)Cc1cccc(CSc2cncc3c(C(F)(F)F)cccc23)n1 (stereo not drawn) [Compound 25] | 0 (X < 0 Rank 0)
N[C@@H](Cc1ccccc1)C(=O)NC(Cc1cccc(CSc2cncc3c(C(F)(F)F)cccc23)n1)C(=O)O (stereo partly drawn) [Compound 26] | 0 (X < 0 Rank 0)
NC(Cc1cccc(CSc2nc3ccccc3[nH]2)n1)C(=O)O (stereo not drawn) [Compound 27] | 3 (X > 20 Rank 3)
N[C@@H](Cc1ccccc1)C(=O)NC(Cc1cccc(CSc2nc3ccccc3[nH]2)n1)C(=O)O (stereo partly drawn) [Compound 29] | 0 (X < 0 Rank 0)
NC(=O)C(N)Cc1cccc(CSc2nc3ccccc3o2)n1 (stereo not drawn) [Compound 31] | 0 (X < 0 Rank 0)
N[C@@H](Cc1ccccc1)C(=O)NC(Cc1cccc(CSc2nc3ccccc3o2)n1)C(=O)O (stereo partly drawn) [Compound 32] | 0 (X < 0 Rank 0)

same assay, conditions: 10^−5 M

Compound | Comparison with the Binding of Phenylalanine
NC(Cc1cccc(CSc2nnc(-c3ccccc3)o2)c1)C(=O)O (stereo not drawn) [Compound 1] | 3 (X > 20 Rank 3)
NC(Cc1cccc(CSc2nnnn2-c2ccc(O)cc2)c1)C(=O)O (stereo not drawn) [Compound 3] | 3 (X > 20 Rank 3)
NC(=O)C(N)Cc1cccc(CSc2nnnn2-c2ccc(O)cc2)c1 (stereo not drawn) [Compound 4] | 3 (X > 20 Rank 3)
NC(Cc1cccc(CSc2ncc[nH]2)c1)C(=O)O (stereo not drawn) [Compound 5] | 3 (X > 20 Rank 3)
NC(=O)C(N)Cc1cccc(CSc2ncc[nH]2)c1 (stereo not drawn) [Compound 6] | 0 (X < 0 Rank 0)
N[C@@H](Cc1ccccc1)C(=O)NC(Cc1cccc(CSc2ncc[nH]2)c1)C(=O)O (stereo partly drawn) [Compound 7] | 0 (X < 0 Rank 0)
NC(Cc1cccc(CSc2nnnn2-c2ccccc2)c1)C(=O)O (stereo not drawn) [Compound 8] | 3 (X > 20 Rank 3)
NC(=O)C(N)Cc1cccc(CSc2nnnn2-c2ccccc2)c1 (stereo not drawn) [Compound 9] | 1 (0 < X < 10 Rank 1)
NC(Cc1cccc(CSc2nnc(-c3ccncc3)o2)c1)C(=O)O (stereo not drawn) [Compound 10] | 1 (0 < X < 10 Rank 1)
NC(=O)C(N)Cc1cccc(CSc2nnc(-c3ccncc3)o2)c1 (stereo not drawn) [Compound 11] | 1 (0 < X < 10 Rank 1)
O=C(O)C(Cc1cccc(CSc2nnc(-c3ccncc3)o2)c1)NS(=O)(=O)c1ccc(F)cc1 (stereo not drawn) [Compound 12] | 0 (X < 0 Rank 0)
NC(Cc1cccc(CSc2nnc(-c3ccccc3)[nH]2)c1)C(=O)O (stereo not drawn) [Compound 13] | 3 (X > 20 Rank 3)
NC(=O)C(N)Cc1cccc(CSc2nnc(-c3ccccc3)[nH]2)c1 (stereo not drawn) [Compound 14] | 3 (X > 20 Rank 3)
NC(Cc1cccc(CSc2nccc(O)n2)c1)C(=O)O (stereo not drawn) [Compound 16] | 1 (0 < X < 10 Rank 1)
O=C(NC(Cc1cccc(CSc2nccc(O)n2)c1)C(=O)O)NC(c1ccccc1)c1ccccc1 (stereo not drawn) [Compound 17] | 1 (0 < X < 10 Rank 1)
NC(Cc1cccc(CSc2nccc(C(F)(F)F)n2)n1)C(=O)O (stereo not drawn) [Compound 21] | 2 (10 < X < 20 Rank 2)
NC(=O)C(N)Cc1cccc(CSc2nccc(C(F)(F)F)n2)n1 (stereo not drawn) [Compound 22] | 1 (0 < X < 10 Rank 1)
NC(Cc1cccc(CSc2cncc3c(C(F)(F)F)cccc23)n1)C(=O)O (stereo not drawn) [Compound 24] | 0 (X < 0 Rank 0)
NC(=O)C(N)Cc1cccc(CSc2cncc3c(C(F)(F)F)cccc23)n1 (stereo not drawn) [Compound 25] | 1 (0 < X < 10 Rank 1)
N[C@@H](Cc1ccccc1)C(=O)NC(Cc1cccc(CSc2cncc3c(C(F)(F)F)cccc23)n1)C(=O)O (stereo partly drawn) [Compound 26] | 0 (X < 0 Rank 0)
NC(Cc1cccc(CSc2nc3ccccc3[nH]2)n1)C(=O)O (stereo not drawn) [Compound 27] | 3 (X > 20 Rank 3)
N[C@@H](Cc1ccccc1)C(=O)NC(Cc1cccc(CSc2nc3ccccc3[nH]2)n1)C(=O)O (stereo partly drawn) [Compound 29] | 1 (0 < X < 10 Rank 1)
NC(=O)C(N)Cc1cccc(CSc2nc3ccccc3o2)n1 (stereo not drawn) [Compound 31] | 0 (X < 0 Rank 0)
N[C@@H](Cc1ccccc1)C(=O)NC(Cc1cccc(CSc2nc3ccccc3o2)n1)C(=O)O (stereo partly drawn) [Compound 32] | 1 (0 < X < 10 Rank 1)

same assay, conditions: 10^−6 M

Compound | Comparison with the Binding of Phenylalanine
NC(Cc1cccc(CSc2nnc(-c3ccccc3)o2)c1)C(=O)O (stereo not drawn) [Compound 1] | 2 (10 < X < 20 Rank 2)
NC(Cc1cccc(CSc2nnnn2-c2ccc(O)cc2)c1)C(=O)O (stereo not drawn) [Compound 3] | 3 (X > 20 Rank 3)
NC(=O)C(N)Cc1cccc(CSc2nnnn2-c2ccc(O)cc2)c1 (stereo not drawn) [Compound 4] | 3 (X > 20 Rank 3)
NC(Cc1cccc(CSc2ncc[nH]2)c1)C(=O)O (stereo not drawn) [Compound 5] | 3 (X > 20 Rank 3)
NC(=O)C(N)Cc1cccc(CSc2ncc[nH]2)c1 (stereo not drawn) [Compound 6] | 3 (X > 20 Rank 3)
N[C@@H](Cc1ccccc1)C(=O)NC(Cc1cccc(CSc2ncc[nH]2)c1)C(=O)O (stereo partly drawn) [Compound 7] | 2 (10 < X < 20 Rank 2)
NC(Cc1cccc(CSc2nnnn2-c2ccccc2)c1)C(=O)O (stereo not drawn) [Compound 8] | 3 (X > 20 Rank 3)
NC(=O)C(N)Cc1cccc(CSc2nnnn2-c2ccccc2)c1 (stereo not drawn) [Compound 9] | 0 (X < 0 Rank 0)
NC(Cc1cccc(CSc2nnc(-c3ccncc3)o2)c1)C(=O)O (stereo not drawn) [Compound 10] | 3 (X > 20 Rank 3)
NC(=O)C(N)Cc1cccc(CSc2nnc(-c3ccncc3)o2)c1 (stereo not drawn) [Compound 11] | 2 (10 < X < 20 Rank 2)
O=C(O)C(Cc1cccc(CSc2nnc(-c3ccncc3)o2)c1)NS(=O)(=O)c1ccc(F)cc1 (stereo not drawn) [Compound 12] | 2 (10 < X < 20 Rank 2)
NC(Cc1cccc(CSc2nnc(-c3ccccc3)[nH]2)c1)C(=O)O (stereo not drawn) [Compound 13] | 3 (X > 20 Rank 3)
NC(=O)C(N)Cc1cccc(CSc2nnc(-c3ccccc3)[nH]2)c1 (stereo not drawn) [Compound 14] | 2 (10 < X < 20 Rank 2)
NC(Cc1cccc(CSc2nccc(O)n2)c1)C(=O)O (stereo not drawn) [Compound 16] | 0 (X < 0 Rank 0)
O=C(NC(Cc1cccc(CSc2nccc(O)n2)c1)C(=O)O)NC(c1ccccc1)c1ccccc1 (stereo not drawn) [Compound 17] | 2 (10 < X < 20 Rank 2)
NC(Cc1cccc(CSc2nccc(C(F)(F)F)n2)n1)C(=O)O (stereo not drawn) [Compound 21] | 1 (0 < X < 10 Rank 1)
NC(=O)C(N)Cc1cccc(CSc2nccc(C(F)(F)F)n2)n1 (stereo not drawn) [Compound 22] | 0 (X < 0 Rank 0)
NC(Cc1cccc(CSc2cncc3c(C(F)(F)F)cccc23)n1)C(=O)O (stereo not drawn) [Compound 24] | 3 (X > 20 Rank 3)
NC(=O)C(N)Cc1cccc(CSc2cncc3c(C(F)(F)F)cccc23)n1 (stereo not drawn) [Compound 25] | 0 (X < 0 Rank 0)
N[C@@H](Cc1ccccc1)C(=O)NC(Cc1cccc(CSc2cncc3c(C(F)(F)F)cccc23)n1)C(=O)O (stereo partly drawn) [Compound 26] | 1 (0 < X < 10 Rank 1)
NC(Cc1cccc(CSc2nc3ccccc3[nH]2)n1)C(=O)O (stereo not drawn) [Compound 27] | 3 (X > 20 Rank 3)
N[C@@H](Cc1ccccc1)C(=O)NC(Cc1cccc(CSc2nc3ccccc3[nH]2)n1)C(=O)O (stereo partly drawn) [Compound 29] | 3 (X > 20 Rank 3)
NC(=O)C(N)Cc1cccc(CSc2nc3ccccc3o2)n1 (stereo not drawn) [Compound 31] | 2 (10 < X < 20 Rank 2)
N[C@@H](Cc1ccccc1)C(=O)NC(Cc1cccc(CSc2nc3ccccc3o2)n1)C(=O)O (stereo partly drawn) [Compound 32] | 3 (X > 20 Rank 3)
